Experimental data: PMC6039321 (International Journal for Parasitology: Drugs and Drug …, 2018)
Like-named read-outs stand apart in the source and are kept apart here.

Key:
P. yoelii (17XL) = test: microbe, parasite or virus in culture; assay type: cell-based, Plasmodium yoelii; details: for IC50: read-out: OCA P. yoelii IC50
HEK 293 cells = assay type: cell-based, H. sapiens; details: for IC50: read-out: OCA HEK 293 IC50, Table 4
cytbc1 = cytbc1 (Plasmodium falciparum, UniProt Q02768); test: Enzymatic cytbc1 activity; assay type: biochemical, P. falciparum K1 strain; details: for % Inhibition Cytbc1 biochemical assay, 5 μM: compound at 5 μM, P. falciparum mitochondria, atovaquone 100% inhibition control
cytbc1, sequence (Q02768 whole entry): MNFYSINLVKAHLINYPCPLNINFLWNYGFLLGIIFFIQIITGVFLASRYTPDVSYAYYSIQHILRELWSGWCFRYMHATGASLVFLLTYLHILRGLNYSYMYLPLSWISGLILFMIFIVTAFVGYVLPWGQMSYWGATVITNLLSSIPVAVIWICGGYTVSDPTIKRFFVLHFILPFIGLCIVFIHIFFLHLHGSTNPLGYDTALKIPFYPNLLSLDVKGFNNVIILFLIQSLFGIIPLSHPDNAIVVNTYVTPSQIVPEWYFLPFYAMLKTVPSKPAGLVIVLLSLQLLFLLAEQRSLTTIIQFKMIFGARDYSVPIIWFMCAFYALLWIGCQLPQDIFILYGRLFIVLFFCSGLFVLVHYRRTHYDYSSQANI

P. falciparum (K1) = assay type: cell-based, Plasmodium falciparum

| Structure (SMILES) | IC50 (P. yoelii (17XL); Table 4) | IC50 (HEK 293 cells) | % Inhibition Cytbc1 biochemical assay, 5 μM (cytbc1) | also measured |
| --- | --- | --- | --- | --- |
| c1ccc(CCNc2ncnc3c2[nH]c2ccccc23)cc1 [TCMDC-124578] | 292 ± 249 nM | 7520 ± 500 nM | 100.30 ± 2.14% | – |
| O=C(Nc1ccccc1O)c1ccc(S(=O)(=O)c2ccc(Cl)cc2)cc1 [TCMDC-123689] | 8190 ± 1260 nM | > 10000 nM | 99.84 ± 2.22% | – |
| COc1ccc(NS(=O)(=O)c2cc(NC(=O)Cn3ccccc3=O)ccc2N2CCCCC2)cc1 [TCMDC-124874] | 760 ± 109 nM | > 10000 nM | 59.97 ± 8.70% | – |
| C=C(C)[C@H]1Cc2c(ccc3c2O[C@@H]2COc4cc(OC)c(OC)cc4[C@@H]2C3=O)O1 [Rotenone, reference compound] | – | – | – | inhibition of oxygen consumption signal in HEK 293 cells (HEK 293 cells; rotenone at 2.5 μM, 6.5·10^5 HEK 293 cells (Fig. 2A)): completely inhibited |
| O=C1C(O)=C([C@H]2CC[C@H](c3ccc(Cl)cc3)CC2)C(=O)c2ccccc21 [Atovaquone, reference compound] | – | – | – | inhibition of oxygen consumption signal in Plasmodium cells (P. yoelii (17XL); 1.25 μM atovaquone, 2·10^7 P. yoelii cells (Fig. 2B)): completely inhibited; IC50 (P. yoelii (17XL); Plasmodium yoelii): 5 ± 1 nM; inhibition at 0.5 µM (cytbc1; read-out: % Inhibition Cytbc1 biochemical assay, 0.5 μM): 105 ± 8.26%; inhibition at 5 µM (cytbc1; read-out: % Inhibition Cytbc1 biochemical assay, 5 μM): 101 ± 9.82% |
| COCCN(C)c1ccc(C(=O)Nc2ccccc2)cc1NS(=O)(=O)Cc1ccccc1.O=C(O)C(F)(F)F [TCMDC-134575] | 514 ± 225 nM | > 10000 nM | 91.48 ± 7.57% | – |
| Clc1cccc(Nc2ccc3c(N4CCCCC4)ncnc3n2)c1 [TCMDC-134937] | 1320 ± 860 nM | > 10000 nM | 50.34 ± 6.78% | – |
| Cc1cccc(-c2nn(-c3ccccc3)cc2C(=O)Nc2nnc(C)o2)c1 [TCMDC-125039] | 1100 ± 131 nM | > 10000 nM | 77.11 ± 12.20% | – |
| N#CC(C#N)=NNc1ccc(OC(F)(F)F)cc1 [FCCP, carbonyl cyanide 4-(trifluoromethoxy)phenylhydrazone] | – | – | – | Selectivity (P. falciparum vs H. sapiens) (P. falciparum (K1)): 1.93 |
| C/C=C(C)/C=C/C=C/[C@H](OC)[C@@H](C)[C@@H](OC)[C@@H](C)CCc1oc2c(O)c(OC)cc(OC)c2c(=O)c1C [Stigmatellin] | – | – | – | Selectivity (P. falciparum vs H. sapiens) (P. falciparum (K1); ratio of OCA IC50 HEK 293 / P. falciparum K1): 0.015 |
| Cc1cccc2nc(-c3ccc(-c4ccc(CN5CC(C)OC(C)C5)cc4)cc3)[nH]c12.O=C(O)C(F)(F)F (stereo not shown) [TCMDC-133823] | 2200 ± 1950 nM | > 10000 nM | 89.93 ± 9.67% | – |
